What was measured:
Experiment in all cases: Proliferation assay, crystal violet staining
HeLa-MaTu-ADR cells = type: cell-based; conditions: Homo sapiens, 96 h, 4 days incubation, read-out: Inhibition of HeLa-MaTu-ADR cell proliferation
Procedure: (§1) After 24 hours, the cells of one plate (zero plate) were dyed with crystal violet (see below), whereas the medium of the other plates was replaced with fresh culture medium (200 μl) to which the test substances were added in various concentrations (0 μM, and also in the range of 0.001-10 μM; the final concentration of the solvent dimethyl sulphoxide was 0.1 or 0.5%). The cells were incubated for 4 days in the presence of the test substances. […] After washing the fixed cells three times with water, the plates were dried at room temperature. The cells were stained by adding 100 μl/measurement point of a 0.1% strength crystal violet solution (pH adjusted to pH 3 by adding acetic acid). After washing the cells three times with water, the plates were dried at room temperature. The dye was dissolved by adding 100 μl/measurement point of a 10% strength acetic acid solution. […] The percentage change in cell growth was calculated by normalizing the measured values to the absorbance values of the zero plate (=0%) and the absorbance of the untreated (0 W) cells (=100%). The IC50 values were determined by means of a four parameter fit.

Caco-2 cells = type: cell-based; conditions: Homo sapiens, Caco-2, 96 h, 4 days incubation, read-out: Inhibition of Caco-2 cell proliferation
Procedure: as §1

HeLa cells = conditions: Homo sapiens, 96 h, read-out: Inhibition of HeLa cell proliferation, HeLa cells, 4 days incubation
NCI-H460 cells = conditions: Homo sapiens, NCI-H460, 96 h, read-out: Inhibition of NCI-H460 cell proliferation, NCI-H460 cells, 4 days incubation
Procedure: as §1

DU145 cells = conditions: Homo sapiens, DU-145, 96 h, read-out: Inhibition of DU145 cell proliferation, DU145 cells, 4 days incubation
Procedure: as §1

Row | SMILES | IC50 (HeLa-MaTu-ADR cells) [nM] | IC50 (Caco-2 cells) [nM] | IC50 (HeLa cells) [nM] | IC50 (NCI-H460 cells) [nM] | IC50 (DU145 cells) [nM]
1 | C[C@@H]1COCCN1c1cc(-c2ccc(S(C)(=N)=O)cc2)c2ccnc(-c3ccn[nH]3)c2n1 (stereo partly drawn) [Example 30, 4-[2-((R)-3-methylmorpholin-4-yl)-8-(2H-pyrazol-3-yl)-[1,7]naphthyridine-4-yl]phenyl-S-methylsulphoximide] | > 3000 | 2890 | 512 | 293 | 325
2 | C[C@@H]1COCCN1c1cc(-c2cccc(S(C)(=N)=O)c2)c2ccnc(-c3ccn[nH]3)c2n1 (stereo partly drawn) [Example 31, 3-[2-((R)-3-methylmorpholin-4-yl)-8-(2H-pyrazol-3-yl)-[1,7]naphthyridine-4-yl]phenyl-S-methylsulphoximide] | > 3000 | > 3000 | 1250 | 685 | 1110
3 | CS(=O)(=O)c1cc(N2CCOCC2)nc2c(-c3cc[nH]n3)nccc12 [Example 32] | > 3000 | > 3000 | 1560 | > 3000 | 1840
4 | N#Cc1cc(N2CCOCC2)nc2c(-c3cc[nH]n3)nccc12 [Example 34, 2-(morpholin-4-yl)-8-(1H-pyrazol-3-yl)-[1,7]naphthyridine-4-carbonitrile] | > 3000 | 4990 | 1020 | 1630 | 2390
5 | CC(C)Oc1cc(N2CCOCC2)nc2c(-c3cc[nH]n3)nccc12 [Example 40, 4-Isopropoxy-2-(morpholin-4-yl)-8-(1H-pyrazol-3-yl)-[1,7]naphthyridine] | 2260 | 1970 | 2720 | 672 | 1150
6 | COc1cc(N2CCOCC2)nc2c(-c3cc[nH]n3)nccc12 [Example 44, 4-methoxy-2-(morpholin-4-yl)-8-(1H-pyrazol-3-yl)-[1,7]naphthyridine] | > 10000 | 7690 | 1010 | 2010 | 4450
7 | C[C@@H]1COCCN1c1cc(-c2ccc(S(C)(=O)=O)cc2F)c2ccnc(-c3ccn[nH]3)c2n1 [Example 74, 4-[2-fluoro-4-(methylsulfonyl)phenyl]-2-[(3R)-3-methylmorpholin-4-yl]-8-(1H-pyrazol-5-yl)-1,7-naphthyridine] | > 1000 | > 1000 | 203 | > 1000 | > 1000
8 | Cc1cc(S(C)(=O)=O)ncc1-c1cc(N2CCOC[C@H]2C)nc2c(-c3ccn[nH]3)nccc12 [Example 79, 4-[4-methyl-6-(methylsulfonyl)pyridin-3-yl]-2-[(3R)-3-methylmorpholin-4-yl]-8-(1H-pyrazol-5-yl)-1,7-naphthyridine] | 2300 | 868 | 303 | 93.7 | 656
9 | C[C@@H]1COCCN1c1cc(N2CCN(C)C(=O)C2)c2ccnc(-c3ccn[nH]3)c2n1 [Example 157, 1-methyl-4-{2-[(3R)-3-methylmorpholin-4-yl]-8-(1H-pyrazol-5-yl)-1,7-naphthyridin-4-yl}piperazin-2-one] | > 3000 | > 3000 | 872 | > 3000 | > 3000
10 | CC(C)[S+]([O-])c1cc(N2CCOCC2)nc2c(-c3ccn[nH]3)nccc12 (stereo not shown) [Example 196, 2-(morpholin-4-yl)-4-[propan-2-ylsulfinyl]-8-(1H-pyrazol-5-yl)-1,7-naphthyridine] | > 3000 | 869 | 1020 | 291 | 144
11 | C[C@@H]1COCCN1c1cc(OCCCS(C)(=O)=O)c2ccnc(-c3ccn[nH]3)c2n1 [Example 197, 2-[(3R)-3-methylmorpholin-4-yl]-4-[3-(methylsulfonyl)propoxy]-8-(1H-pyrazol-5-yl)-1,7-naphthyridine] | > 3000 | > 3000 | 1010 | 516 | 129
12 | O=S1(=O)CCCN1c1cc(N2CCOCC2)nc2c(-c3ccn[nH]3)nccc12 [Example 216, 4-(1,1-dioxido-1,2-thiazolidin-2-yl)-2-(morpholin-4-yl)-8-(1H-pyrazol-5-yl)-1,7-naphthyridine] | > 3000 | > 3000 | 1010 | 1110 | 1660

Other lines, results leading:

Row | IC50 (HeLa-MaTu-ADR cells) [nM] | IC50 (Caco-2 cells) [nM] | IC50 (HeLa cells) [nM] | IC50 (NCI-H460 cells) [nM] | IC50 (DU145 cells) [nM] | SMILES
13 | 498 | 577 | 394 | 243 | 291 | C[C@@H]1COCCN1c1cc(C2CC2)c2ccnc(-c3cc[nH]n3)c2n1 [Example 29]
14 | 1800 | 2930 | 1230 | 391 | 895 | CC(C)Oc1cc(N2CCOC[C@H]2C)nc2c(-c3cc[nH]n3)nccc12 [Example 51, 4-Isopropoxy-2-((R)-3-methylmorpholin-4-yl)-8-(1H-pyrazol-3-yl)-[1,7]naphthyridine]
15 | 2170 | 1980 | 998 | 691 | 730 | c1cc2c(C3CCOCC3)cc(N3CCOCC3)nc2c(-c2cc[nH]n2)n1 [Example 60, 2-(morpholin-4-yl)-8-(1H-pyrazol-5-yl)-4-(tetrahydro-2H-pyran-4-yl)-1,7-naphthyridine]
16 | 1790 | 631 | 181 | 59 | 748 | Cc1nc(S(C)(=O)=O)ccc1-c1cc(N2CCOC[C@H]2C)nc2c(-c3ccn[nH]3)nccc12 [Example 73, 4-[2-methyl-6-(methylsulfonyl)pyridin-3-yl]-2-[(3R)-3-methylmorpholin-4-yl]-8-(1H-pyrazol-5-yl)-1,7-naphthyridine]
17 | 291 | 286 | 157 | 81.7 | 104 | Cc1ccc(-c2cc(N3CCOC[C@H]3C)nc3c(-c4ccn[nH]4)nccc23)cn1 [Example 88, 2-[(3R)-3-methylmorpholin-4-yl]-4-(6-methylpyridin-3-yl)-8-(1H-pyrazol-5-yl)-1,7-naphthyridine]
18 | 595 | 340 | 170 | 88.4 | 94 | CCS(=O)(CC)=Nc1cc(N2CCOC[C@H]2C)nc2c(-c3ccn[nH]3)nccc12 [Example 126, 4-{[diethyl(oxido)-λ^6-sulfanylidene]amino}-2-[(3R)-3-methylmorpholin-4-yl]-8-(1H-pyrazol-5-yl)-1,7-naphthyridine]
19 | 791 | 549 | 383 | 153 | 146 | C[C@@H]1COCCN1c1cc(N=S2(=O)CCCC2)c2ccnc(-c3ccn[nH]3)c2n1 [Example 137, N-{2-[(3R)-3-methylmorpholin-4-yl]-8-(1H-pyrazol-5-yl)-1,7-naphthyridin-4-yl}tetrahydro-1H-1λ^4-thiophen-1-imine 1-oxide]
20 | 522 | 492 | 248 | 90.6 | 30.5 | C[C@@H]1COCCN1c1cc(N2CCOCC2)c2ccnc(-c3ccn[nH]3)c2n1 [Example 145, 2-[(3R)-3-methylmorpholin-4-yl]-4-(morpholin-4-yl)-8-(1H-pyrazol-5-yl)-1,7-naphthyridine]
21 | 2150 | 2050 | 921 | 673 | 1900 | CC(C)S(=O)(=O)c1ccc(-c2cc(N3CCOC[C@H]3C)nc3c(-c4ccn[nH]4)nccc23)cc1 [Example 151, 4-[4-(isopropylsulfonyl)phenyl]-2-[(3R)-3-methylmorpholin-4-yl]-8-(1H-pyrazol-5-yl)-1,7-naphthyridine]
22 | 965 | 708 | 857 | 320 | 244 | CC(C)S(=O)(=O)c1cc(N2CCOCC2)nc2c(-c3ccn[nH]3)nccc12 [Example 199, 2-(morpholin-4-yl)-4-(propan-2-ylsulfonyl)-8-(1H-pyrazol-5-yl)-1,7-naphthyridine]
23 | 1490 | 1240 | 672 | 219 | 652 | C[C@@H]1COCCN1c1cc(-c2ccn[nH]2)c2ccnc(-c3ccn[nH]3)c2n1 [Example 205, 2-[(3R)-3-methylmorpholin-4-yl]-4,8-di(1H-pyrazol-5-yl)-1,7-naphthyridine]
24 | 993 | > 1000 | 604 | 303 | 334 | COc1ncccc1-c1cc(N2CCOC[C@H]2C)nc2c(-c3ccn[nH]3)nccc12 [Example 220, 4-(2-methoxypyridin-3-yl)-2-[(3R)-3-methylmorpholin-4-yl]-8-(1H-pyrazol-5-yl)-1,7-naphthyridine]
25 | 594 | 637 | 225 | 233 | 313 | C[C@@H]1COCCN1c1cc(-c2ccc(F)nc2F)c2ccnc(-c3ccn[nH]3)c2n1 [Example 228, 4-(2,6-difluoropyridin-3-yl)-2-[(3R)-3-methylmorpholin-4-yl]-8-(1H-pyrazol-5-yl)-1,7-naphthyridine]
26 | 882 | 529 | 293 | 75.6 | 48.6 | C[C@@H]1COCCN1c1cc(C2(S(C)(=O)=O)CC2)c2ccnc(-c3ccn[nH]3)c2n1 [Example 286, 2-[(3R)-3-methylmorpholin-4-yl]-4-[1-(methylsulfonyl)cyclopropyl]-8-(1H-pyrazol-5-yl)-1,7-naphthyridine]

Source: patent US10772893B2, “2-(morpholin-4-yl)-1,7-naphthyridines” (BAYER PHARMA AKTIENGESELLSCHAFT, priority 2014, dated 2020)
